We go through 16 compounds from patent US7737127B2, “2-propynyl adenosine analogs having A2A agonist activity and compositions thereof” (University of Virginia Patent Foundation, priority 2001, dated 2010).

The subject of assay [1] is human neutrophils. Briefly: Human neutrophil oxidative activity, luminol-enhanced chemiluminescence. It is filed as cell-based. The method, then: Chemiluminescence Methods: Lumninol enhanced chemiluminescence, a measure of neutrophil oxidative activity, is dependent upon both superoxide production and mobilization of the granule enzyme myeloperoxidase. The light is emitted from unstable high-energy oxygen species such as hypochlorous acid and singlet oxygen generated by activated neutrophils.
The plate was incubated 5 min (37 C) and then fMLP (50 l in HA; final concentration […]) was added to all wells.
Data are presented as peak chemiluminescence as percent of activity in the absence of an adenosine agonist. The EC50 was determined using PRISM software. All compounds were tested with PMNs from three separate donors.
Lummol-enhanced chemiluminescence, a measure of neutrophil oxidative activity, is dependent upon both superoxide production and mobilization of the lysosomal granule enzyme myeloperoxidase. The light is emitted from unstable high-energy oxygen species generated by activated neutrophils. Purified neutrophils (5-10×10^5/ml) were incubated in Hanks balanced salt solution containing 0.1% human serum albumin (1 ml) with the tested A2A agonist with or without rolipram and with or without tumor necrosis factor-alpha (1 U/ml) for 30 minutes at 37° C. in a shaking water bath. […] Chemiluminescence is reported as relative peak light emitted (=height of the curve) compared to samples with tumor necrosis factor-alpha and without agonist or rolipram.

In assay [2] the target is T1, human A1 AR (Homo sapiens, UniProt P30542).
T1 sequence (P30542 1-326): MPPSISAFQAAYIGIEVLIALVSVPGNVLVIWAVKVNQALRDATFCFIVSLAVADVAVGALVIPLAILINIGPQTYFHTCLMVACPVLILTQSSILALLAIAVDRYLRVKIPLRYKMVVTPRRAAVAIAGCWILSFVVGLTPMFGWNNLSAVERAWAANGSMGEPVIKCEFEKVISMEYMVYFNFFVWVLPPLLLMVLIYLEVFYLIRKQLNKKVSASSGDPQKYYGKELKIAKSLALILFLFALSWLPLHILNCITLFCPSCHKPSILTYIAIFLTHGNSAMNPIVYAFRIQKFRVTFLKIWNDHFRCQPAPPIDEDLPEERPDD
Briefly: Radioligand competition binding (125I-ABA) to human A1 AR in CHO K1 cell membranes. The settings on record: for Ki: Ki from competition binding, 125I-ABA, CHO K1 cell membranes; for A1/A2A: selectivity ratio A1 over A2A. On the technique in general: Displacement assays read how much labelled ligand stays bound in the presence of the test substance.
Method: (§1) Sf9 cells were cultured in Grace's medium supplemented with 10% fetal bovine serum, 2.5 μg/ml amphotericin B and 50 μg/ml gentamycin in an atmosphere of 50% N2/50% O2. […] Infected cells were harvested 3 days post-infection and washed twice in insect PBS (PBS pH 6.3). Cells were then resuspended in lysis buffer (20 mM HEPES pH 7.5, 150 mM NaCl, 3 mM MgCl2, 1 mM β-mercaptoethanol (BME), 5 μg/mL leupeptin, 5 μg/mL pepstatin A, 1 μg/mL aprotinin, and 0.1 mM PMSF) and snap frozen for storage at −80° C. Cells were thawed on ice, brought to 30 mL total volume in lysis buffer, and burst by N2 cavitation (600 psi for 20 minutes). A low-speed centrifugation was performed to remove any unlysed cells (1000×g for 10 minutes), followed by a high-speed centrifugation (17,000×g for 30 minutes). The pellet from the final centrifugation was homogenized in buffer containing 20 mM HEPES pH 8, 100 mM NaCl, 1% glycerol, 2 μg/mL leupeptin, 2 μg/mL pepstatin A, 2 μg/mL Aprotinin, 0.1 mM PMSF, and 10 μM GDP using a small glass homogenizer followed by passage through a 26 gauge needle. Membranes were aliquoted, snap frozen in liquid N2, and stored at −80° C.
(§2) Binding experiments were performed in triplicate with 5 μg (A2A) or 25 μg (A1 and A3) membrane protein in a total volume of 0.1 mL HE buffer (20 mM HEPES and 1 mM EDTA) with 1 U/mL adenosine deaminase and 5 mM MgCl2 with or without 50 μM GTPγS. Membranes were incubated with radioligands at room temperature for three hours (for agonists) or two hours (for antagonists) in Millipore Multiscreene® 96-well GF/C filter plates and assays were terminated by rapid filtration on a cell harvester (Brandel, Gaithersburg, Md.) followed by 4×150 μl washes over 30 seconds with ice cold 10 mM Tris-HCl, pH 7.4, 10 mM MgCl2.

Assay [3] has as its target recombinant human A2A receptors (Homo sapiens, UniProt P29274). Briefly: Radioligand competition binding to recombinant human A2A receptors in Sf9 cell membranes.
Method: as §1, §2
The target of assay [4] is T2, A3 AR (Homo sapiens, UniProt P0DMS8).
T2 sequence (P0DMS8 1-318): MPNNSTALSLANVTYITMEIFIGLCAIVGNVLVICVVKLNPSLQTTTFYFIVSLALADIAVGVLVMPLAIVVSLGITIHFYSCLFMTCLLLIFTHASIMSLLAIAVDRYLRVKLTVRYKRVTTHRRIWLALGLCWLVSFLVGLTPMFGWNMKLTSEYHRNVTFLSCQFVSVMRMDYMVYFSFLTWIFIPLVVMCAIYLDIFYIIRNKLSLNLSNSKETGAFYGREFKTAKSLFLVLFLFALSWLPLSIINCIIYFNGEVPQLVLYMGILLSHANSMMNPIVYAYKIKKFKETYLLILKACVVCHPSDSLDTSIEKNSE
The assay is described as follows: Radioligand competition binding (125I-ABA) to human A3 AR in HEK 293 cell membranes. The settings on record: for Ki: Ki from competition binding, 125I-ABA, HEK 293 cell membranes; for A3/A2A: selectivity ratio A3 over A2A.
Method: as §1, §2

Where [5] appears, read: human neutrophil experiment w/Rolipram.
Setting [6] is: human neutrophil experiment w/o Rolipram.
The mark [7] stands for this setting: A2A ± SEM, Ki from competition binding, Sf9 cell membranes.
Setting [8] is: read-out: A2A ± SEM, Ki from competition binding, Sf9 cell membranes.
Where [9] appears, read: human neutrophil experiment w/o Rolipram, read-out: PMN oxid (-log EC50) (converted).
[10] abbreviates: Homo sapiens, Neutrophil, human neutrophil experiment w/o Rolipram, read-out: PMN oxid (-log EC50) (converted).

Where two headings read alike, the source gives them in different places.

Sequence of recombinant human A2A receptors (P29274 whole entry): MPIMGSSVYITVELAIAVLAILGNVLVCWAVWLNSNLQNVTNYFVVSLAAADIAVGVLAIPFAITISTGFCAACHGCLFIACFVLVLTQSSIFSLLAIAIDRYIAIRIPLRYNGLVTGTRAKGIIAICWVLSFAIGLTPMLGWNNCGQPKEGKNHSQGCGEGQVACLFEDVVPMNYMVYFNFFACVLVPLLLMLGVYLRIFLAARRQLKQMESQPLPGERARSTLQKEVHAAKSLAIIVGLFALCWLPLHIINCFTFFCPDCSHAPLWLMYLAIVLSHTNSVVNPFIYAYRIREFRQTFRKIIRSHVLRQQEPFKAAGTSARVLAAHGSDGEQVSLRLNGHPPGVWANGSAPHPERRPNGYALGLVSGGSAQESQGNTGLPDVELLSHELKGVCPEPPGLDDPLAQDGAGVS

As to `CCNC(=O)[C@H]1O[C@@H](n2cnc3c(N)nc(C#CCC4CCC(C)(C(=O)OC)CC4)nc32)C(O)C1O` (single isomer, unassigned) [JR-3067A, 4-{3-[6-Amino-9-(5-ethylcarbamoyl-3,4-dihydroxytetrahydrofuran-2-yl)-9H-purin-2-yl]-prop-2-ynyl}-1-methyl-cyclohexanecarboxylic acid methyl ester], in assay [1] (setting [5]), the “PMN oxid + roli (-log EC50)” value is given as 8.7. Besides, the “PMN oxid (-log EC50)” value in assay [1] (setting [6]) worked out at 7.65. Moreover, the Ki in assay [2] (A1 ± SEM) amounted to 99 ± 27 nM; in assay [3] (setting [7]), 1.3 ± 0.8 nM; in assay [4] (A3 ± SEM), 39 ± 3 nM. For the same compound, the A1/A2A in assay [2] was 76.2. In addition, in assay [4], the A3/A2A is 30.0.
For the compound `CCNC(=O)[C@H]1O[C@@H](n2cnc3c(N)nc(C#CCC4CCC(C)(C(=O)OC)CC4)nc32)C(O)C1O` (single isomer, unassigned) [JR-3067B, 4-{3-[6-Amino-9-(5-ethylcarbamoyl-3,4-dihydroxytetrahydrofuran-2-yl)-9H-purin-2-yl]-prop-2-ynyl}-1-methyl-cyclohexanecarboxylic acid methyl ester], the “PMN oxid + roli (-log EC50)” value in assay [1] (setting [5]) is given as 8.2. In assay [1] (setting [6]), the “PMN oxid (-log EC50)” value was 6.83. The values for the Ki in assay [2] (A1 ± SEM), in assay [3] (setting [7]) and in assay [4] (A3 ± SEM) were 121 ± 44 nM, 4 ± 0.2 nM and 212 ± 95 nM, respectively. In assay [2], the A1/A2A is 30.3. In addition, the A3/A2A in assay [4] is 53.0.
Consider `CCNC(=O)C1OC(n2cnc3c(N)nc(C#CC(O)C4CCCCC4)nc32)C(O)C1O` (single isomer, unassigned) [JR-3159A], for which the “PMN oxid + roli (-log EC50)” value in assay [1] (setting [5]) is 9.34. For the same compound, the “PMN oxid (-log EC50)” value in assay [1] (setting [6]) stood at 8.43. For the same compound, the Ki in assay [2] (read-out: A1 ± SEM) came out at 0.9 ± 0.05 nM; in assay [3] (setting [8]) it was 0.6 ± 0.06 nM; in assay [4] (read-out: A3 ± SEM), 3.9 ± 1.5 nM. Also, the A1/A2A in assay [2] is listed as 1.4. Also, the A3/A2A in assay [4] turned out to be 6.6.
Consider `CCNC(=O)C1OC(n2cnc3c(N)nc(C#CC(O)C4CCCCC4)nc32)C(O)C1O` (single isomer, unassigned) [JR-3159B], for which the “PMN oxid + roli (-log EC50)” value in assay [1] (setting [5]) is on record as 10.36. The “PMN oxid (-log EC50)” value in assay [1] (setting [6]) is recorded as 9.44. Also, the Ki in assay [2] (read-out: A1 ± SEM) was 2 ± 0.21 nM; in assay [3] (setting [8]), 0.4 ± 0.07 nM; in assay [4] (read-out: A3 ± SEM), 2.6 ± 0.3 nM. Besides, the A1/A2A in assay [2] stood at 5.7. For the same compound, the A3/A2A in assay [4] was found to be 7.4.
In the case of `CCNC(=O)[C@H]1O[C@@H](n2cnc3c(N)nc(C#CC4(O)CCCCC4C)nc32)C(O)C1O` (single isomer, unassigned) [JR-3177A, 5-[6-Amino-2-(1-hydroxy-2-methyl-cyclohexylethynyl)-purin-9-yl]-3,4-dihydroxytetrahydrofuran-2-carboxylic acid ethylamide], the “PMN oxid + roli (-log EC50)” value in assay [1] (setting [5]) is 9.03. In addition, the “PMN oxid (-log EC50)” value in assay [1] (setting [6]) was found to be 7.53. Also, the Ki in assay [2] (A1 ± SEM) came out at 8.7 ± 0.07 nM; in assay [3] (setting [7]), 1.2 ± 0.35 nM; in assay [4] (A3 ± SEM), 6.7 ± 0.3 nM. Besides, the A1/A2A in assay [2] worked out at 7.1. Further, the A3/A2A in assay [4] stood at 5.5.
Turning to `CCNC(=O)[C@H]1O[C@@H](n2cnc3c(N)nc(C#CCC4CCC(C(=O)OC)CC4)nc32)C(O)C1O` (stereo in doubt) [ATL-146e, 4-{3-[6-Amino-9-(5-ethylcarbamoyl-3,4-dihydroxytetrahydrofuran-2-yl)-9H-purin-2-yl]-prop-2-ynyl}-cyclohexanecarboxylic acid methyl ester], the “PMN oxid + roli (-log EC50)” value in assay [1] (setting [5]) came out at 9.33. The 50% effective concentration (EC50) in assay [1] (setting [9]) is 3.55 nM. Further, the Ki in assay [2] (A1 ± SEM) stood at 77 ± 12 nM; in assay [4] (A3 ± SEM) it was 45 ± 15 nM. In assay [2], the A1/A2A is reported as 154.0. In addition, the A3/A2A in assay [4] turned out to be 90.0.
As for `CCNC(=O)[C@H]1O[C@@H](n2cnc3c(N)nc(C#CC4(O)CCCC4)nc32)C(O)C1O` (stereo in doubt) [JR-3135, 5-[6-Amino-2-(1-hydroxy-cyclopentylethynyl)-purin-9-yl]-3,4-dihydroxytetrahydrofuran-2-carboxylic acid ethylamide], the EC50 in assay [1] (setting [10]) is 1.26 nM. The “PMN oxid + roli (-log EC50)” value in assay [1] (setting [5]) is given as 9.6. Further, the values for the Ki in assay [2] (A1 ± SEM) and in assay [4] (A3 ± SEM) were 5 ± 1.3 nM and 3.5 ± 1.2 nM, respectively.
Regarding `CCNC(=O)[C@H]1O[C@@H](n2cnc3c(N)nc(C#CCN4CC5CC4CN5C(=O)OC(C)(C)C)nc32)C(O)C1O` (stereo in doubt) [JR-4015, 5-{3-[6-Amino-9-(5-ethylcarbamoyl-3,4-dihydroxytetrahydrofuran-2-yl)-9H-purin-2-yl]prop-2-ynyl}-2,5-diazabicyclo[2.2.1]heptane-2-carboxylic acid tert-butyl ester], the A1/A2A in assay [2] is given as 0.0. Moreover, the Ki in assay [3] was found to be 4.25 ± 1 nM. The A3/A2A in assay [4] is 0.0.
`CCNC(=O)[C@H]1O[C@@H](n2cnc3c(N)nc(C#CC[C@H]4CC[C@H](COC(=O)OCC(C)C)CC4)nc32)C(O)C1O` (stereo partly drawn) [ATL215, N-Ethyl 2-{3-[trans-4-(isobutoxyoxycarbonyloxamethyl)-cyclohexyl]-1-propyn-1-yl}adenosine-5′-uronamide]: the EC50 in assay [1] (setting [10]) was 20 nM. Moreover, the Ki in assay [3] (setting [7]) was 4.8 nM.
The corresponding values for `CCNC(=O)[C@H]1O[C@@H](n2cnc3c(N)nc(C#CC[C@H]4CC[C@H](COC(=O)OCc5ccccc5)CC4)nc32)C(O)C1O` (stereo partly drawn) [ATL216, N-Ethyl 2-{3-[trans-4-(benzoxycarbonyloxamethyl)-cyclohexyl]-1-propyn-1-yl}adenosine-5′-uronamide] are 13 nM and 2.7 nM.
As for `OC[C@H]1O[C@@H](n2cnc3c(NC4CCCC4)nc(Cl)nc32)[C@H](O)[C@@H]1O` [CCPA, 2-chloro-N^6-cyclopentyladenosine, reference compound], the “PMN oxid + roli (-log EC50)” value in assay [1] (setting [5]) is 7.26. For the same compound, the EC50 in assay [1] (setting [9]) was 4270 nM.
Turning to `CCNC(=O)[C@H]1O[C@@H](n2cnc3c(N)nc(NCCc4ccc(CCC(=O)O)cc4)nc32)[C@H](O)[C@@H]1O` [CGS-21680, 2-[4-(2-carboxyethyl)phenethylamino]-5′-N-ethyl-carboxamidoadenosine, reference compound], the EC50 in assay [1] (Homo sapiens, Neutrophil, human neutrophil experiment w/Rolipram, read-out: PMN oxid + roli (-log EC50) (converted)) is 2.82 nM; in assay [1] (setting [10]), 30.2 nM.
As to `CNC(=O)[C@H]1O[C@@H](n2cnc3c(NCc4cccc(I)c4)nc(Cl)nc32)[C@H](O)[C@@H]1O` [CI-IBMECA, N^6-3-iodo-2-chlorobenzyladenosine-5′-N-methyluronamide, reference compound], the EC50 in assay [1] (setting [9]) was 45700 nM.
Regarding `OC[C@H]1O[C@@H](n2cnc3c(NC4CCCC4)ncnc32)[C@H](O)[C@@H]1O` [CPA, N^6-cyclopentyladenosine, reference compound], in assay [1] (setting [10]), the half-maximal effective concentration (EC50) was 93300 nM. The “PMN oxid + roli (-log EC50)” value in assay [1] (setting [5]) is 7.06. Besides, the Ki is 19.8 ± 3.2 nM in assay [3] (A2A ± SEM) and 93 ± 7 nM in assay [4] (A3 ± SEM).
On to `CNC(=O)[C@H]1O[C@@H](n2cnc3c(NCc4cccc(I)c4)ncnc32)[C@H](O)[C@@H]1O` [IBMECA, N^6-3-iodobenzyladenosine-5′-N-methyluronamide, reference compound], for which the “PMN oxid + roli (-log EC50)” value in assay [1] (setting [5]) is 8.01. Besides, in assay [1] (setting [9]), the 50% effective concentration (EC50) was 324 nM.
In the same order, the values of `CCNC(=O)[C@H]1O[C@@H](n2cnc3c(N)ncnc32)[C@H](O)[C@@H]1O` [NECA, 5′-N-ethylcarboxamidoadenosine, reference compound] are 8.95 and 15.1 nM.

What is called EC50 is the concentration at which the effect is half-maximal.
